{"source": "patent US8609067B2", "about": "“Method of measuring propulsion in lymphatic structures” (Board of Regents of the University of Texas System, priority 2006, dated 2013)", "system": "swine hindlimb vessel", "assay": "Staining of lymph vessels with HA-NIR molecule", "format": "in vivo", "procedure": "Four, two-month old, 60 lb white Yorkshire swine (K Bar Livestock, HC 69 Box 270 Sabinal, Tex.) were imaged using protocols which were approved by the Baylor College of Medicine Institutional Animal Care and Use Committee. The animals were anesthetized, intubated, and maintained with isoflurane. Animal body temperature was maintained at 100° F. using a warming blanket. At the end of the procedure, the animals were euthanized and lymph nodes resected with fluorescence guidance.\nContinuous-wave optical imaging of the fluorescent NIR dyes was performed with a custom built intensified charged-coupled device (CCD). Reynolds J S, Troy T L, and Sevick-Muraca E M. Multipixel techniques for frequency-domain photon migration imaging. Biotechnol Prog 13: 669-680, 1997, incorporated herein by reference in its entirety for all purposes. Briefly, the device had three principal components: 1) a NIR-sensitive image intensifier (model FS9910C ITT Night Vision, Roanoke, Va.); 2) a 16-bit dynamic range, frame transfer CCD camera (Roper Scientific, Tucson, Ariz.); and 3) a 785-nm laser diode (Thorlabs) used to provide the excitation light for activating ICG and hyaluronan-NIR. The 785-nm laser diode beam was expanded by using a planoconvex lens and a holographic optical diffuser such that approximately 0.08 m^2 of the swine's body was illuminated. A 785-nm holographic notch band rejection filter (model HNPF-785.0-2.0, Kaiser Optical Systems, Ann Arbor, Mich.) and an 830-nm image quality bandpass filter (model 830.0-2.0, Andover, Salem, N.H.) were placed before the 28-mm Nikkor lens (Nikon) to selectively reject the excitation light and pass the emitted 830-nm wavelength. A total of 400 to 1,000 images with 512×512 resolution and 200 ms exposure time were acquired enabling near-real time visualization of ICG trafficking. For image registration, white light images were acquired by replacing the holographic and bandpass filters with a neutral density filter and illuminating the surface of the swine with a low-power lamp. […]"}
{"smiles": "CC1(C)C(/C=C/C=C/C=C/C=C2\\N(CCCCS(=O)(=O)O)c3ccc4ccccc4c3C2(C)C)=[N+](CCCCS(=O)(=O)[O-])c2ccc3ccccc3c21", "note": "[ICG, indocyanine green]", "values": [{"measurement": "normalized fluorescent intensity in ROI as a function of time", "setting": "image acquisition 6 min, swine leg lymph vessel", "result": "fluctuation and net reduction of intensity"}, {"measurement": "propulsion of packets", "setting": "swine hindlimb vessel, 64 μM HA-NIR, 32 μM ICG", "result": "observed"}, {"measurement": "fluorescence intensity along the length of the vessel and with time", "setting": "three-dimensional plots, swine lymph vessels", "result": "varies with time and length along the vessel"}]}
